The source of these data is patent US8591892B2, “FTY720 increases CD74 expression and sensitizes cancer cells to anti-CD74 antibody-mediated cell death” (The Ohio State University, priority 2011, dated 2013).

The subject of one data set is human AML cell lines. Nature of the data set: Proliferation assays, milatuzumab with/without IFN-γ. The format is cell-based. Here is the method:
CD74 expression in bone marrow biopsy (BMB) specimens from non-M3 AML patients was evaluated by immunohistochemistry and, for 3 human AML cell lines, by flow cytometry, with/without permeabilization and with/without IFN-γ (40 and 200 U/mL). These cell lines were also tested in proliferation assays for responses to milatuzumab, with/without IFN-γ. In 13/14 BMB specimens, there was moderate to strong CD74 expression by leukemic blasts, which was mostly intracellular, usually with a perinuclear distribution (data not shown). […] IFN-γ induced intracellular CD74 in all 3 lines (from 85%-868%) (not shown).

Data set [1] concerns Capan-1, Aspc-1, LoVo, HT-29, U87, U118 cells. The experiment in a line: Cytotoxicity of milatuzumab with and without crosslinking agent or IFN-γ. In kind it is cell-based. To be noted: regardless of crosslinking agent or IFN-γ. How it is done: (§1) We examined whether the ability of anti-CD74 MAbs to kill cancer cells can be increased by using IFN-γ as an inducer of antigen expression. Using a panel of diverse cancer cell lines (including NHL, MM, GBM, and pancreatic and colonic carcinomas), we examined IFN-γ-induced changes in surface and cytoplasmic CD74 expression. Sensitivity of the malignant cells to milatuzumab was assessed with and without IFN-γ by cytotoxicity assays.
(§2) The cytotoxicity of anti-CD74 antibodies was examined in the presence or absence of IFN-γ (not shown). As previously observed, in vitro cytotoxicity of milatuzumab required crosslinking (Stein, et al., Blood, 104: 3705-11, 2004). Goat anti-human IgG (GAH) was used for crosslinking in these experiments.

In data set [2] the test system is primary tumor cells from MCL patients. Nature of the data set: Cell viability by annexin-V/PI staining and flow cytometry. The format is cell-based, human. To be noted: six MCL patients, 24 hours; FTY720 2.5 μM, immobilized milatuzumab 5 μg/ml. How it is done: FIG. 4. FTY720 sensitizes MCL cell lines and primary patient tumor cells to milatuzumab-mediated cytotoxicity. (A) Four MCL cell lines and primary cells from 6 patients were treated with FTY720 and/or milatuzumab plus cross-linking antibodies at the indicated concentrations. (B) Patient characteristics. (C) Individual patient responses. (D) Representative histograms summarizing patient responses. Cell death was determined by annexin V/PI staining and flow cytometry at 24 hours. Data are shown as the percentage of annexin V−/PI− cells (live cells) and are normalized to untreated controls.
Primary tumor cells were isolated from the peripheral blood/lymph nodes of patients with MCL. All patients studied were diagnosed with MCL according to the World Health Organization (WHO) classification of tumors (Swerdlow, 2008, World Health Organization Classification of Tumours of Haematopoetic and Lymphoid Tissues (ed 4th ed.) Lyon, France, International Agency on Research for Cancer). All samples contained at least 85% of CD19^+/CD20^+ B cells detected by flow cytometry. […]
To assess lysosomal volume, FTY720 treated cells were incubated with LYSOTRACKER™ green DND-26. […] Cell viability was measured at 24 hours by dual staining with annexin-V FITC and propidium iodide (PI). A total of 10,000 events were collected and analyzed using WinMDI. […]
A general note: In flow cytometry, cells or beads pass a laser one at a time.

A further data set concerns WSU-FSCCL NHL cells. Nature of the data set: Cytotoxicity of milatuzumab with GAH crosslinking, with and without IFN-γ. To be noted: in vitro. The format is cell-based. Here is the method: as §1, §2
The conditions of data set [3]: multiple myeloma patients, 1.5 mg/kg twice weekly for 4 weeks; cited from earlier work.

Take “milatuzumab: fully humanized monoclonal antibody specific for CD74”: the growth inhibition with human AML cell lines (first responding AML line, with IFN-γ) is on record as 44.8%; with human AML cell lines (first responding AML line, without IFN-γ), 23.7%; with human AML cell lines (second responding AML line, with IFN-γ) it was 30.9%; in the data set with human AML cell lines (second responding AML line, without IFN-γ) it was −3.9%. In data set [1], the cell killing entry is recorded as “unable to kill”. Besides, the average cell death in data set [2] stood at 50%. Also, the “increased killing after IFN-γ exposure” value in the data set with WSU-FSCCL NHL cells is reported as 33%. Further, the peak levels in data set [3] was 10 to 20 µg/mL.
